Measured values published in patent publication US20100022559A1, “BISOXIMES AS FUNGICIDES” (BAYER CROPSCIENCE AG, priority 2006, published 2010).

test: logP determination by HPLC on a reversed-phase column (C 18), EEC Directive 79/831 Annex V.A8; assay type: physicochemical; conditions: method marked [a] in Table 1
Experimental: The stated logP values were determined in accordance with EEC Directive 79/831 Annex V.A8 by HPLC (high performance liquid chromatography) on a reversed-phase column (C 18). Temperature: 43° C.

Compound | logP
CC(=NOCC(C)CON=C(C)c1cccc(Cl)n1)c1cccc(Cl)n1 (stereo not shown) [compound 568] | 6.08^[a]
CC(=NOCC(C)(C)CON=C(C)c1cccc(Cl)n1)c1cccc(Cl)n1 [compound 569] | 6.50^[a]
CCc1cc(CC)nc(C(C)=NOCC(C)CON=C(C)c2cc(CC)cc(CC)n2)c1 (stereo not shown) [compound 574] | 5.95^[a]
CC(=NOCC(C)(C)CON=C(C)c1nccn1C)c1nccn1C [compound 576] | 1.07^[a]
CC(=NOCC(C)(C)CON=C(C)c1cccc(-c2ccc(Cl)c(C(F)(F)F)c2)n1)c1cccc(-c2ccc(Cl)c(C(F)(F)F)c2)n1 [compound 577] | 7.36^[a]
CC(=NOCC(C)(C)CON=C(C)c1cccc(-c2cc(Cl)cc(Cl)c2)n1)c1cccc(-c2cc(Cl)cc(Cl)c2)n1 [compound 578] | 7.36^a]
COc1ccc(-c2cccc(C(C)=NOCC(C)(C)CON=C(C)c3cccc(-c4ccc(OC)cc4)n3)n2)cc1 [compound 579] | 7.36^[a]
CC(=NOCC(C)(C)CON=C(C)c1cccc(-c2ccc(C(C)(C)C)cc2)n1)c1cccc(-c2ccc(C(C)(C)C)cc2)n1 [compound 580] | 7.36^[a]
CCC1=NOC(CON=C(C)c2cccc(C)n2)(CON=C(C)c2cccc(C)n2)C1 (stereo not shown) [compound 594] | 2.68^[a]
CCC1=NOC(CON=C(c2cccc(C)n2)C(C)C)(CON=C(c2cccc(C)n2)C(C)C)C1 (stereo not shown) [compound 595] | 4.79^[a]

same assay, conditions: method marked [b] in Table 1

Compound | logP
CC(=NOCC(C)(C)CON=C(C)c1sc(C)nc1C)c1cccc(C)n1 [compound 546] | 4.37^[b]
CC(=NOCC(C)(C)CON=C(c1cccc(C)n1)C(C)C)c1cccc(C)n1 [compound 547] | 4.57^[b]
CC(=NOCC(C)CON=C(C)c1cccc(-c2cccc(C)n2)n1)c1cccc(-c2cccc(C)n2)n1 (stereo not shown) [compound 551] | 6.24^[b]
CC(=NOCC(O)CON=C(C)c1cc(C)cc(C)n1)c1cc(C)cc(C)n1 (stereo not shown) [compound 560] | 1.22[b]
CC(=NOCC(C)CON=C(C)c1cccc(-c2ccccc2)n1)c1cccc(-c2ccccc2)n1 (stereo not shown) [compound 563] | 7.36^[b]
C=C(CON=C(C)c1ccc[nH]1)CON=C(C)c1ccc[nH]1 [compound 564] | 3.23^[b]
C=C(CON=C(C)c1nc(OC)cc(OC)n1)CON=C(C)c1nc(OC)cc(OC)n1 [compound 565] | 4.10^[b]
C=C(CON=C(C)c1cccc(-c2ccccc2)n1)CON=C(C)c1cccc(-c2ccccc2)n1 [compound 567] | 7.26
CC(=NOCC(CON=C(C)c1nc(C)ccc1C)Cc1ccccc1)c1nc(C)ccc1C (stereo not shown) [compound 590] | 4.15^[b]
CC(=NOCC(CON=C(C)c1nc(C)ccc1C)Cc1ccccc1)c1cccc(C)n1 (stereo not shown) [compound 591] | 3.40^[b]
CC1=NOC(CON=C(C)c2cccc(C)n2)(CON=C(C)c2cccc(C)n2)C1 (stereo not shown) [compound 596] | 2.20^[b]
CC(=NOCC1(CON=C(C)c2cccc(C)n2)CC(C(C)C)=NO1)c1cccc(C)n1 (stereo not shown) [compound 597] | 3.28^[b]
CCCC1=NOC(CON=C(C)c2cccc(C)n2)(CON=C(C)c2cccc(C)n2)C1 (stereo not shown) [compound 598] | 3.33^[b]
CC(=NOCC1(CON=C(C)c2cccc(C)n2)CC(CC(C)C)=NO1)c1cccc(C)n1 (stereo not shown) [compound 599] | 3.89^[b]
CC(=NOCC1(CON=C(C)c2cccc(C)n2)CC(c2ccc(Cl)cc2)=NO1)c1cccc(C)n1 (stereo not shown) [compound 601] | 4.67^[b]
CC(=NOCC1(CON=C(C)c2cccc(C)n2)CC(c2ccccc2Cl)=NO1)c1cccc(C)n1 (stereo not shown) [compound 602] | 4.46^[b]

Compound | logP
C/C(=N\OCC1(CO/N=C(\C)c2cccc(C)n2)CC(c2cccc(Cl)c2)=NO1)c1cccc(C)n1 [compound 603] | 4.67^[b]
CC(C)=CC1=NOC(CO/N=C(\C)c2cccc(C)n2)(CO/N=C(\C)c2cccc(C)n2)C1 [compound 604] | 3.70^[b]
CCC(=NOCC1(CON=C(CC)c2cccc(C)n2)CC(C)=NO1)c1cccc(C)n1 (stereo not shown) [compound 605] | 3.42^[b]
CCC(=NOCC1(CON=C(CC)c2cccc(C)n2)CC(C(C)C)=NO1)c1cccc(C)n1 (stereo not shown) [compound 606] | 4.67^[b]
CCCC1=NOC(CON=C(CC)c2cccc(C)n2)(CON=C(CC)c2cccc(C)n2)C1 (stereo not shown) [compound 608] | 4.72^[b]
CCC(=NOCC1(CON=C(CC)c2cccc(C)n2)CC(CC(C)C)=NO1)c1cccc(C)n1 (stereo not shown) [compound 609] | 5.21^[b]
CCC(=NOCC1(CON=C(CC)c2cccc(C)n2)CC(C(C)(C)C)=NO1)c1cccc(C)n1 (stereo not shown) [compound 610] | 5.21^[b]
CCC(=NOCC1(CON=C(CC)c2cccc(C)n2)CC(c2ccccc2)=NO1)c1cccc(C)n1 (stereo not shown) [compound 611] | 5.08^[b]
CCC(=NOCC1(CON=C(CC)c2cccc(C)n2)CC(c2ccc(Cl)cc2)=NO1)c1cccc(C)n1 (stereo not shown) [compound 612] | 5.84^[b]
CCC(=NOCC1(CON=C(CC)c2cccc(C)n2)CC(c2cccc(Cl)c2)=NO1)c1cccc(C)n1 (stereo not shown) [compound 613] | 5.84^[b]
CCCC(=NOCC1(CON=C(CCC)c2cccc(C)n2)CC(C)=NO1)c1cccc(C)n1 (stereo not shown) [compound 615] | 4.56^[b]
CCCC(=NOCC1(CON=C(CCC)c2cccc(C)n2)CC(C(C)C)=NO1)c1cccc(C)n1 (stereo not shown) [compound 616] | 5.71^[b]
CCCC(=NOCC1(CON=C(CCC)c2cccc(C)n2)CC(CC)=NO1)c1cccc(C)n1 (stereo not shown) [compound 617] | 5.08^[b]
CCCC(=NOCC1(CON=C(CCC)c2cccc(C)n2)CC(CC(C)C)=NO1)c1cccc(C)n1 (stereo not shown) [compound 619] | 6.22^[b]
CCCC(=NOCC1(CON=C(CCC)c2cccc(C)n2)CC(C(C)(C)C)=NO1)c1cccc(C)n1 (stereo not shown) [compound 620] | 6.22^[b]
CCCC(=NOCC1(CON=C(CCC)c2cccc(C)n2)CC(c2ccccc2)=NO1)c1cccc(C)n1 (stereo not shown) [compound 621] | 5.9^[b]

same assay, conditions: method marked [c] in Table 1

Compound | logP
CC(=NOCC(C)CON=C(C)c1cccc(-c2cccc(C)n2)n1)c1cccc(-c2cccc(C)n2)n1 (stereo not shown) [compound 551] | 3.26^[c]
CC(=NOCC(O)CON=C(C)c1cc(C)cc(C)n1)c1cc(C)cc(C)n1 (stereo not shown) [compound 560] | 3.68^[c]
CC(=NOCC(C)CON=C(C)c1cccc(-c2ccccc2)n1)c1cccc(-c2ccccc2)n1 (stereo not shown) [compound 563] | 7.36^[c]
C=C(CON=C(C)c1ccc[nH]1)CON=C(C)c1ccc[nH]1 [compound 564] | 3.20^[c]
C=C(CON=C(C)c1nc(OC)cc(OC)n1)CON=C(C)c1nc(OC)cc(OC)n1 [compound 565] | 4.10^[c]
C=C(CON=C(C)c1cccc(-c2ccccc2)n1)CON=C(C)c1cccc(-c2ccccc2)n1 [compound 567] | 7.27
CC(=NOCC(CON=C(C)c1nc(C)ccc1C)Cc1ccccc1)c1nc(C)ccc1C (stereo not shown) [compound 590] | 6.01^[c]
CC(=NOCC(CON=C(C)c1nc(C)ccc1C)Cc1ccccc1)c1cccc(C)n1 (stereo not shown) [compound 591] | 5.07^[c]

same assay, conditions: value marked [a]

Compound | logP
CC(=NOCC(C)CON=C(C)c1cccc(C)n1)c1ccc2c(c1)CC(C)O2 (stereo not shown) [compound 494] | 5.27^[a]
CC(=NOCC(C)CON=C(C)c1csc(C)n1)c1csc(C)n1 (stereo not shown) [compound 517] | 3.52^[a]
CC(=NOCC(C)(C)CON=C(C)c1csc(C)n1)c1csc(C)n1 [compound 518] | 3.99^[a]
CC(=NOCCCON=C(C)c1cccc(C(F)F)n1)c1cccc(C(F)F)n1 [compound 521] | 5.21^[a]
C=C(CON=C(C)c1csc(C)n1)CON=C(C)c1csc(C)n1 [compound 522] | 3.22^[a]

same assay, conditions: value marked [b]

Compound | logP
C=C(CON=C(C)c1cccc(C)n1)CON=C(C)c1cncc(C)n1 [compound 480] | 3.46^[b]
CC(=NOCC(C)(C)CON=C(C)c1cccc(C)n1)c1ccncc1 [compound 481] | 2.41^[b]
CC(=NOCC(C)(C)CON=C(C)c1cccc(C)n1)c1ccc2c(c1)CC(C)O2 (stereo not shown) [compound 482] | 5.65^[b]
COc1cccc(C(C)=NOCC(C)(C)CON=C(C)c2cccc(C)n2)c1 [compound 484] | 5.31^[b]
CC(=NOCC(C)(C)CON=C(C)c1cccc(C)n1)c1ccc(Cl)cc1 [compound 485] | 6.22^[b]
CC(=NOCC(C)(C)CON=C(C)c1cccnc1C)c1cccc(C)n1 [compound 488] | 2.20^[b]
CCCc1cccc(C(C)=NOCC(C)(C)CON=C(C)c2cccc(C)n2)n1 [compound 489] | 6.36^[b]
CC(=NOCC(C)(C)CON=C(C)c1ncccc1C)c1cccc(C)n1 [compound 490] | 3.89^[b]
C/C(=N\OCC(C)(C)CO/N=C(\C)c1cncc(C)n1)c1cccc(C)n1 [compound 492] | 4.41^[b]
CC(=NOCC(C)CON=C(C)c1cccc(C)n1)c1ccncc1 (stereo not shown) [compound 493] | 2.04^[b]
CC(=NOCC(C)CON=C(C)c1cccc(C)n1)c1ccc(Cl)cc1 (stereo not shown) [compound 496] | 5.78^[b]
CC(=NOCC(C)CON=C(C)c1cccc(C)n1)c1ccc2ccccc2c1 (stereo not shown) [compound 497] | 5.84^[b]
CC(=NOCC(C)CON=C(C)c1ccc(Cl)s1)c1cccc(C)n1 (stereo not shown) [compound 498] | 5.36^[b]
CC(=NOCC(C)CON=C(C)c1cccnc1C)c1cccc(C)n1 (stereo not shown) [compound 500] | 1.85^[b]
CC(=NOCC(C)CON=C(C)c1ncccc1C)c1cccc(C)n1 (stereo not shown) [compound 503] | 3.37^[b]
C/C(=N\OCC(C)CO/N=C(\C)c1cncc(C)n1)c1cccc(C)n1 (stereo not shown) [compound 505] | 3.85^[b]
CC(=NOCC(C)CON=C(C)c1nccc(C)n1)c1cccc(C)n1 (stereo not shown) [compound 506] | 2.59^[b]
CC(=NOCC(C)CON=C(C)c1cccc(C)n1)c1cnccn1 (stereo not shown) [compound 507] | 3.28^[b]
CC(=NOCCCCON=C(C)c1nccc(C)n1)c1cccc(C)n1 [compound 508] | 2.37^[b]
C=C(CON=C(C)c1cccc(C)n1)CON=C(C)c1nccc(C)n1 [compound 510] | 2.37^[b]
CC(=NOCC(C)(C)CON=C(C)c1nccc(C)n1)c1cccc(C)n1 [compound 511] | 3.02^[b]
CC(=NOCCCCON=C(C)c1cccc(C)n1)c1cnccn1 [compound 512] | 3.02^[b]
CC(=NOCCCCCCON=C(C)c1cccc(C)n1)c1cnccn1 [compound 513] | 4.25^[b]
C=C(CON=C(C)c1cnccn1)CON=C(C)c1cccc(C)n1 [compound 514] | 2.98^[b]
CC(=NOCC(C)(C)CON=C(C)c1cccc(C)n1)c1cnccn1 [compound 515] | 3.70^[b]
C=C(CON=C(CC)c1nc(C)c(C)c(C)n1)CON=C(CC)c1nc(C)c(C)c(C)n1 [compound 516] | 4.07^[b]
CC(=NOCC(C)CON=C(C)c1csc(C)n1)c1csc(C)n1 (stereo not shown) [compound 517] | 3.52^[b]
CC(=NOCC(C)(C)CON=C(C)c1csc(C)n1)c1csc(C)n1 [compound 518] | 3.99^[b]
C=C(CON=C(C)c1csc(C)n1)CON=C(C)c1csc(C)n1 [compound 522] | 3.22^[b]
CC(=NOCCCCON=C(Cc1ccccc1)c1ncccc1C)c1cccc(C)n1 [compound 528] | 3.24^[b]
